Experimental data: ChEMBL document CHEMBL1158156, “Structure-based design, synthesis, and biological evaluation of 1,1-dioxoisothiazole and benzo[b]thiophene-1,1-dioxide derivatives as novel inhibitors of hepatitis C virus NS5B polymerase” (Bioorg Med Chem Lett, 2008)

Experiments:
Hepatitis C virus [1] = assay: Antiviral activity against HCV 1b infected in human Huh7/C24 cells after 72 hrs by replicon assay; format: functional, organism-based, Hepacivirus hominis; settings: genotype 1b, Huh-7, 72 h
Hepatitis C virus [2] = assay: Inhibition of HCV 1b NS5B polymerase; set-up: species or system Hepatitis C virus subtype 1b
[3] = Metabolic stability in human liver microsomes assessed as half life
[4] = Cytotoxicity against human Huh7/C24 cells after 72 hrs; format: cell-based, Huh-7
[5] = Apparent permeability from apical to basolateral side in human Caco-2 cells; format: ADME, cell-based
[6] = Apparent permeability from basolateral to apical side in human Caco-2 cells; format: ADME, cell-based
[7] = AUC at 24 hrs in cynomolgus monkey at 1 mg/kg, po administered as single dose; format: ADME, organism-based, Macaca fascicularis; set-up: time < 24 hr, dose 1 mg/kg, route oral; settings: plasma
[8] = Plasma concentration in cynomolgus monkey at 1 mg/kg, po administered as single dose after 12 hrs; format: ADME, organism-based, Macaca fascicularis; set-up: dose 1 mg/kg, route oral
[9] = Oral bioavailability in cynomolgus monkey at 1 mg/kg administered as single dose; format: ADME, organism-based, Macaca fascicularis; settings: in vivo
[10] = Ratio of permeability from basolateral to apical over apical to basolateral side in human Caco-2 cells
[11] = Apparent permeability across human Caco-2 cells

Row | EC50 (Hepatitis C virus [1]) [µM] | IC50 (Hepatitis C virus [2]) [µM] | half-life ([3]; liver microsomes) [h] | Structure (SMILES) | CC50 at 72 h [4] [µM] | also measured
1 | 18 | 3.6 | > 1 | CCOc1cccc2c1S(=O)(=O)N=C2C1=C(O)[C@H](C(C)C)N(Cc2ccccc2)C1=O | > 33 | 
2 | 0.09 | 0.023 | > 1 | CN(Cc1cccc2c1S(=O)(=O)N=C2C1=C(O)[C@H](C(C)(C)C)N(Cc2ccc(F)c(Cl)c2)C1=O)S(C)(=O)=O | > 33 | Papp A→B [5]: 0.2 ×10⁻⁶ cm/s; Papp B→A [6]: 29 ×10⁻⁶ cm/s; AUC at 24 h [7]: 193 ng·h/mL; concentration at 12 h [8]: 3.1 ng/mL; bioavailability [9]: 4%; efflux ratio [10]: 132
3 | 12 | 1.6 | > 1 | CC(C)[C@H]1C(O)=C(C2=NS(=O)(=O)c3c(OCC#N)cccc32)C(=O)N1Cc1ccccc1 | > 33 | 
4 |  | 0.46 | > 1 | CN(Cc1cccc2c1S(=O)(=O)N=C2C1=C(O)C(C)(C)N(Cc2ccc(F)c(Cl)c2)C1=O)S(C)(=O)=O | > 33 | 
5 | 15 | 0.35 | > 1 | CC(C)[C@H]1C(O)=C(C2=NS(=O)(=O)c3c(OCc4ncon4)cccc32)C(=O)N1Cc1ccccc1 | > 33 | 
6 | 7.9 | 0.033 | > 1 | CC(C)(C)[C@H]1C(O)=C(C2=NS(=O)(=O)c3c(OCC(N)=O)cccc32)C(=O)N1Cc1ccc(F)c(Cl)c1 | > 33 | 
7 | 24 |  | > 1 | CC(C)[C@H]1C(O)=C(C2=NS(=O)(=O)c3ccccc32)C(=O)N1Cc1ccccc1 | > 33 | 
8 |  | 13 | > 1 | CC(C)[C@@]1(C)C(O)=C(C2=CS(=O)(=O)c3c(CN(C)S(C)(=O)=O)cccc32)C(=O)N1CCC(C)(C)C | > 33 | 
9 | > 33 | 0.13 |  | CS(=O)(=O)NCc1cccc2c1S(=O)(=O)N=C2C1=C(O)C2(CC2)N(Cc2ccc(F)c(Cl)c2)C1=O | > 33 | half-life ([3]; microsomes): > 1 h
10 |  | 1.6 |  | CCOc1cccc2c1S(=O)(=O)N=C2C1=C(O)[C@H](C(C)(C)C)N(Cc2cccc(Cl)c2)C1=O | > 33 | 
11 | 88 | 0.52 | > 1 | CC(C)[C@H]1C(O)=C(C2=NS(=O)(=O)c3c(OCC(N)=O)cccc32)C(=O)N1Cc1ccccc1 | > 33 | 
12 | 1.8 | 0.18 | > 1 | CC(C)(C)[C@H]1C(O)=C(C2=NS(=O)(=O)c3c(OCc4ncon4)cccc32)C(=O)N1Cc1ccc(F)c(Cl)c1 | > 33 | 
13 | 2 | 0.65 | 0.733 | CC(C)(C)CCN1C(=O)C(C2=NS(=O)(=O)c3c(OCc4ncon4)cccc32)=C(O)[C@@H]1C(C)(C)C | > 33 | 
14 | 4.3 | 0.42 | 0.167 | CC(C)(C)CCN1C(=O)C(C2=NS(=O)(=O)c3ccccc32)=C(O)[C@@H]1C(C)(C)C | > 33 | Papp A→B [5]: 9.9 ×10⁻⁶ cm/s; Papp B→A [6]: 19 ×10⁻⁶ cm/s; AUC at 24 h [7]: 4680 ng·h/mL; concentration at 12 h [8]: 5 ng/mL; efflux ratio [10]: 2
15 |  | 9 |  | CCOc1cccc2c1S(=O)(=O)N=C2C1=C(O)[C@H](C(C)C)N(CCC(C)(C)C)C1=O | > 33 | 
16 |  | 1.5 | > 1 | CCOc1cccc2c1S(=O)(=O)N=C2C1=C(O)[C@H](C(C)(C)C)N(CCC(C)(C)C)C1=O | > 33 | 
17 |  | 5.1 |  | CCOc1cccc2c1S(=O)(=O)N=C2C1=C(O)[C@H](CC(C)C)N(CCC(C)(C)C)C1=O | > 33 | 
18 |  | 0.62 | > 1 | CN(Cc1cccc2c1S(=O)(=O)N=C2C1=C(O)C2(CC2)N(Cc2ccc(F)c(Cl)c2)C1=O)S(C)(=O)=O | > 33 | 

Row | EC50 (Hepatitis C virus [1]) [µM] | IC50 (Hepatitis C virus [2]) [µM] | half-life ([3]; liver microsomes) [h] | Structure (SMILES) | CC50 at 72 h [4] [µM] | also measured
19 | 0.7 | 0.07 | > 1 | CC(C)(C)[C@H]1C(O)=C(C2=NS(=O)(=O)c3c(OCC#N)cccc32)C(=O)N1Cc1ccc(F)c(Cl)c1 | > 33 | 
20 | 11 | 0.2 | 0.8 | CC(C)(C)CCN1C(=O)C(C2=NS(=O)(=O)c3c(OCC(N)=O)cccc32)=C(O)[C@@H]1C(C)(C)C | > 33 | 
21 |  | 0.76 |  | CCOc1cccc2c1S(=O)(=O)N=C2C1=C(O)[C@H](C(C)(C)C)N(Cc2ccc(F)c(Cl)c2)C1=O | > 33 | half-life ([3]; microsomes): > 1 h
22 | 0.35 | 0.018 |  | CC(C)(C)CCN1C(=O)C(C2=NS(=O)(=O)c3c(CNS(C)(=O)=O)cccc32)=C(O)[C@@H]1C(C)(C)C | > 33 | half-life ([3]; microsomes): > 1 h
23 | 13 | 0.094 | > 1 | CC(C)(C)[C@H]1C(O)=C(C2=NS(=O)(=O)c3cc(NS(C)(=O)=O)ccc32)C(=O)N1Cc1ccc(F)c(Cl)c1 | > 33 | 
24 |  | 2.9 |  | CCOc1cccc2c1S(=O)(=O)N=C2C1=C(O)C(c2cccs2)N(CCC(C)(C)C)C1=O (racemic) | > 33 | 
25 | 0.07 | < 0.01 | > 1 | CC(C)(C)[C@H]1C(O)=C(C2=NS(=O)(=O)c3c(CNS(C)(=O)=O)cccc32)C(=O)N1Cc1ccc(F)c(Cl)c1 | > 33 | Papp A→B [5]: 0.1 ×10⁻⁶ cm/s; Papp B→A [6]: 15 ×10⁻⁶ cm/s; AUC at 24 h [7]: 38 ng·h/mL; concentration at 12 h [8]: 0.5 ng/mL; bioavailability [9]: 1%; efflux ratio [10]: 150
26 |  |  |  | CC(C)NCC(O)COc1cccc2ccccc12 (configuration not stated) [PROPRANOLOL] |  | Papp [11]: 10 ×10⁻⁶ cm/s
27 | > 33 | 21 |  | CC(C)[C@H]1C(O)=C(C2=NS(=O)(=O)c3c(OCC(=O)C(C)(C)C)cccc32)C(=O)N1Cc1ccccc1 | > 33 | 
28 | 5.8 | 0.92 | > 1 | CN(Cc1cccc2c1S(=O)(=O)C=C2C1=C(O)[C@H](C(C)(C)C)N(CCC(C)(C)C)C1=O)S(C)(=O)=O | > 33 | 
29 | 6.4 | 0.24 | > 1 | CC(C)(C)CCN1C(=O)C(C2=CS(=O)(=O)c3c(CNS(C)(=O)=O)cccc32)=C(O)[C@@H]1C(C)(C)C | > 33 | 
30 |  | 5.1 |  | CCOc1cccc2c1S(=O)(=O)N=C2C1=C(O)[C@H](C(C)(C)C)N(CCC(C)C)C1=O | > 33 | 
31 |  | 4 |  | CCOc1cccc2c1S(=O)(=O)N=C2C1=C(O)[C@H](C2CCCCC2)N(CCC(C)(C)C)C1=O | > 33 | 
32 | 47 | 0.47 | > 1 | CC(C)[C@H]1C(O)=C(C2=NS(=O)(=O)c3c(O)cccc32)C(=O)N1Cc1ccccc1 | > 33 | 
33 | 100 | 1.2 |  | CC(C)[C@H]1C(O)=C(C2=NS(=O)(=O)c3c(OCCC(N)=O)cccc32)C(=O)N1Cc1ccccc1 | > 33 | 
34 | 2.6 | 0.045 | > 1 | CC(C)(C)CCN1C(=O)C(C2=NS(=O)(=O)c3c(CCS(C)(=O)=O)cccc32)=C(O)[C@@H]1C(C)(C)C | > 33 | 
35 | > 33 | 3.2 | > 1 | CC(C)[C@H]1C(O)=C(C2=NS(=O)(=O)c3c(OCC(=O)N4CCOCC4)cccc32)C(=O)N1Cc1ccccc1 | > 33 | 
36 |  | 0.41 |  | CC[C@@]1(C)C(O)=C(C2=NS(=O)(=O)c3c(CN(C)S(C)(=O)=O)cccc32)C(=O)N1Cc1ccc(F)c(Cl)c1 | > 33 | half-life ([3]; microsomes): > 1 h
